Measurements reported in patent publication US8329736B2, “Triazole compounds that modulate HSP90 activity” (Synta Pharmaceuticals, Corp., priority 2006, dated 2012).

Test system: Her2
Assay: Degradation of Her2 in BT-474 cells, Western blot (Method 1)
Format: cell-based, human
Settings: 0.5 μM, overnight
Experimental: Human high-Her2 breast carcinoma BT474 (HTB-20), SK-BR-3 (HTB-30) and MCF-7 breast carcinoma (HTB-22) from American Type Culture Collection, VA, USA were grown in Dulbecco's modified Eagle's medium with 4 mM L-glutamine and antibiotics (100 IU/ml penicillin and 100 ug/ml streptomycine; GibcoBRL). To obtain exponential cell growth, cells were trypsinized, counted and seeded at a cell density of 0.5×10^6 cells/ml regularly, every 3 days. All experiments were performed on day 1 after cell passage.
BT-474 cells are treated with 0.5 μM, 2 μM, or 5 μM of 17AAG (a positive control) or 0.5 μM, 2 μM, or 5 μM of a compound of the invention overnight in DMEM medium. After treatment, each cytoplasmic sample is prepared from 1×10^6 cells by incubation of cell lysis buffer (#9803, cell Signaling Technology) on ice for 10 minutes. The resulting supernatant used as the cytosol fractions is dissolved with sample buffer for SDS-PAGE and run on a SDS-PAGE gel, blotted onto a nitrocellulose membrane by using semi-dry transfer. Non-specific binding to nitrocellulose is blocked with 5% skim milk in TBS with 0.5% Tween at room temperature for 1 hour, then probed with anti-Her2/ErB2 mAb (rabbit IgG, #2242, Cell Signaling) and anti-Tubulin (T9026, Sigma) as housekeeping control protein. […]

## C=CCNC1=C2C[C@@H](C)C[C@H](OC)[C@H](O)[C@@H](C)/C=C(\C)[C@H](OC(N)=O)[C@@H](OC)/C=C\C=C(/C)C(=O)NC(=CC1=O)C2=O [Compound 17AAG, 17-allylamino-17-demethoxygeldanamycin]
  degradation of Her2: partial degradation of Her2
